Assay results: PubChem BioAssay AID192 (DTP/NCI, 2004)
Values joined by “and” are separate entries in the source; they are usually repeats but may differ in a detail not shown here. Equal entries are not always repeated. Toxic doses and inconclusive results are not listed.

Test system: BDF1 mice, B16 melanoma ip, median survival T/C
Experiment: NCI In Vivo Anticancer Drug Screen. Data for tumor model B16 Melanoma (intraperitoneal) in B6D2F1 (BDF1) mice
Settings: endpoint: median survival time, higher = longer survival
In short: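 Vehicle-treated animals serve as the reference (C); treated animals (T) are scored for survival or tumor size after tumor transplantation.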

[1] = dose: 50.0 mg/kg/injection, schedule: Q01DX009 (ip), vehicle: Klucel (hydroxypropylcellulose) (HPC)
[2] = dose: 100.0 mg/kg/injection, schedule: Q01DX009 (ip), vehicle: Klucel (hydroxypropylcellulose) (HPC)
[3] = dose: 200.0 mg/kg/injection, schedule: Q01DX009 (ip), vehicle: Klucel (hydroxypropylcellulose) (HPC)
[4] = dose: 12.5 mg/kg/injection, schedule: Q01DX009 (ip), vehicle: Klucel (hydroxypropylcellulose) (HPC)
[5] = dose: 50.0 mg/kg/injection, schedule: Q01DX009 (ip), vehicle: saline with Tween-80
[6] = dose: 100.0 mg/kg/injection, schedule: Q01DX009 (ip), vehicle: saline with Tween-80
[7] = dose: 200.0 mg/kg/injection, schedule: Q01DX009 (ip), vehicle: saline with Tween-80
[8] = dose: 400.0 mg/kg/injection, schedule: Q01DX009 (ip), vehicle: saline with Tween-80
[9] = dose: 12.5 mg/kg/injection, schedule: Q01DX009 (ip), vehicle: saline with Tween-80
[10] = dose: 25.0 mg/kg/injection, schedule: Q01DX009 (ip), vehicle: saline with Tween-80

## O=C(O)CNc1ccccc1C(=O)O
[1]
  T/C: 108 % of control
[2]
  T/C: 94 % of control
[3]
  T/C: 91 % of control

## O=C(NNc1ccccc1)c1ccccc1
dose: 6.25 mg/kg/injection, schedule: Q01DX009 (ip), vehicle: Klucel (hydroxypropylcellulose) (HPC)
  T/C: 97 % of control
[4]
  T/C: 97 % of control
dose: 25.0 mg/kg/injection, schedule: Q01DX009 (ip), vehicle: Klucel (hydroxypropylcellulose) (HPC)
  T/C: 93 % of control
[1]
  T/C: 91 % of control

## CC1(C)c2ccccc2C(C)(C(Cl)(Cl)Cl)c2ccc(Cl)cc21 (centres undefined)
[5]
  T/C: 97 % of control
[6]
  T/C: 103 % of control
[7]
  T/C: 91 % of control
[8]
  T/C: 93 % of control

## C=C/C(C)=C/[C@H](C)C(=O)C[C@H](O)CC1CC(=O)NC(=O)C1
dose: 6.25 mg/kg/injection, schedule: Q01DX009 (ip), vehicle: saline with Tween-80
  T/C: 121 % of control
[9]
  T/C: 109 % of control
[10]
  T/C: 121 % of control
[6]
  T/C: 121 % of control

## CCN(CC)c1nc(Cl)nc(NC(C)C)n1
[5]
  T/C: 95 % of control
[6]
  T/C: 97 % of control
[7]
  T/C: 89 % of control

## Nc1cc(N)cc(C(=O)c2ccccc2)c1
[6]
  T/C: 93 % of control
[7]
  T/C: 97 % of control
[8]
  T/C: 93 % of control

## CCCCCCCCCCCCCCCCCC[n+]1cccc(C(=O)N2CCOCC2)c1
dose: 2.0 mg/kg/injection, schedule: Q01DX009 (ip), vehicle: saline sonified
  T/C: 92 % of control
dose: 4.0 mg/kg/injection, schedule: Q01DX009 (ip), vehicle: saline sonified
  T/C: 100 % of control
dose: 8.0 mg/kg/injection, schedule: Q01DX009 (ip), vehicle: saline sonified
  T/C: 92 % of control
dose: 16.0 mg/kg/injection, schedule: Q01DX009 (ip), vehicle: saline sonified
  T/C: 92 % of control

## O=C(O)CC(NC(=O)CP(=O)(O)O)C(=O)O (centres undefined)
dose: 10.0 mg/kg/injection, schedule: Q01DX005 (ip), vehicle: saline
  T/C: 112 % of control
dose: 15.6 mg/kg/injection, schedule: Q03HX024 (ip), vehicle: saline
  T/C: 175 % of control
dose: 20.0 mg/kg/injection, schedule: Q01DX005 (ip), vehicle: saline
  T/C: 123 % of control
dose: 21.9 mg/kg/injection, schedule: Q01DX009 (ip), vehicle: saline
  T/C: 150 % of control
dose: 25.9 mg/kg/injection, schedule: Q03HX024 (ip), vehicle: saline
  T/C: 176 % of control
dose: 31.1 mg/kg/injection, schedule: Q01DX009 (ip), vehicle: saline
  T/C: 156 % of control
dose: 32.9 mg/kg/injection, schedule: Q01DX009 (ip), vehicle: saline
  T/C: 164 % of control
dose: 43.2 mg/kg/injection, schedule: Q03HX024 (ip), vehicle: saline
  T/C: 182 % of control
dose: 49.4 mg/kg/injection, schedule: Q01DX009 (ip), vehicle: saline
  T/C: 174 % of control
dose: 51.8 mg/kg/injection, schedule: Q01DX009 (ip), vehicle: saline
  T/C: 177 % of control
dose: 74.1 mg/kg/injection, schedule: Q01DX009 (ip), vehicle: saline
  T/C: 182 % of control
dose: 77.8 mg/kg/injection, schedule: Q04DX003 (ip), vehicle: saline
  T/C: 153 % of control
dose: 79.0 mg/kg/injection, schedule: Q01DX009 (ip), vehicle: saline
  T/C: 170 % of control
dose: 79.0 mg/kg/injection, schedule: Q01DX009 (sc), vehicle: saline
  T/C: 165 % of control
dose: 86.4 mg/kg/injection, schedule: Q01DX004 (ip), vehicle: saline
  T/C: 173 % of control
dose: 86.4 mg/kg/injection, schedule: Q01DX009 (ip), vehicle: saline
  T/C: 177 % of control
dose: 111.0 mg/kg/injection, schedule: Q01DX009 (ip), vehicle: saline
  T/C: 201 % of control
dose: 117.0 mg/kg/injection, schedule: Q04DX003 (oral), vehicle: saline
  T/C: 106 % of control
dose: 118.0 mg/kg/injection, schedule: Q01DX009 (ip), vehicle: saline
  T/C: 185 % of control
dose: 118.0 mg/kg/injection, schedule: Q01DX009 (oral), vehicle: saline
  T/C: 100 % of control
dose: 118.0 mg/kg/injection, schedule: Q01DX009 (sc), vehicle: saline
  T/C: 176 % of control
dose: 125.0 mg/kg/injection, schedule: Q04DX003 (ip), vehicle: saline
  T/C: 162 % of control
dose: 130.0 mg/kg/injection, schedule: Q04DX003 (ip), vehicle: saline
  T/C: 168 % of control and 171 % of control
dose: 144.0 mg/kg/injection, schedule: Q01DX004 (ip), vehicle: saline
  T/C: 178 % of control
dose: 144.0 mg/kg/injection, schedule: Q01DX009 (ip), vehicle: saline
  T/C: 199 % of control
dose: 160.0 mg/kg/injection, schedule: Q01DX005 (ip), vehicle: saline
  T/C: 159 % of control
dose: 167.0 mg/kg/injection, schedule: Q01DX009 (ip), vehicle: saline
  T/C: 204 % of control
dose: 177.0 mg/kg/injection, schedule: Q01DX009 (ip), vehicle: saline
  T/C: 177 % of control
dose: 177.0 mg/kg/injection, schedule: Q01DX009 (sc), vehicle: saline
  T/C: 178 % of control
dose: 194.0 mg/kg/injection, schedule: Q04DX003 (oral), vehicle: saline
  T/C: 110 % of control
dose: 216.0 mg/kg/injection, schedule: Q04DX003 (ip), vehicle: saline
  T/C: 161 % of control and 201 % of control
dose: 240.0 mg/kg/injection, schedule: Q01DX004 (ip), vehicle: saline
  T/C: 183 % of control
dose: 250.0 mg/kg/injection, schedule: Q01DX009 (ip), vehicle: saline
  T/C: 190 % of control
dose: 250.0 mg/kg/injection, schedule: Q04DX003 (ip), vehicle: saline
  T/C: 182 % of control
dose: 320.0 mg/kg/injection, schedule: Q01DX005 (ip), vehicle: saline
  T/C: 175 % of control
dose: 324.0 mg/kg/injection, schedule: Q01DX001 (ip), vehicle: saline
  T/C: 168 % of control
dose: 324.0 mg/kg/injection, schedule: Q04DX003 (oral), vehicle: saline
  T/C: 95 % of control
dose: 360.0 mg/kg/injection, schedule: Q04DX003 (ip), vehicle: saline
  T/C: 171 % of control and 227 % of control
dose: 400.0 mg/kg/injection, schedule: Q01DX001 (oral), vehicle: saline
  T/C: 97 % of control
dose: 400.0 mg/kg/injection, schedule: Q01DX004 (ip), vehicle: saline
  T/C: 46 % of control
dose: 500.0 mg/kg/injection, schedule: Q04DX003 (ip), vehicle: saline
  T/C: 197 % of control
dose: 540.0 mg/kg/injection, schedule: Q01DX001 (ip), vehicle: saline
  T/C: 174 % of control
dose: 540.0 mg/kg/injection, schedule: Q04DX003 (oral), vehicle: saline
  T/C: 110 % of control
dose: 600.0 mg/kg/injection, schedule: Q04DX003 (ip), vehicle: saline
  T/C: 86 % of control and 201 % of control
dose: 900.0 mg/kg/injection, schedule: Q01DX001 (ip), vehicle: saline
  T/C: 154 % of control and 190 % of control
dose: 900.0 mg/kg/injection, schedule: Q01DX001 (oral), vehicle: saline
  T/C: 100 % of control
dose: 900.0 mg/kg/injection, schedule: Q01DX001 (sc), vehicle: saline
  T/C: 154 % of control
dose: 1350.0 mg/kg/injection, schedule: Q01DX001 (ip), vehicle: saline
  T/C: 150 % of control
dose: 1350.0 mg/kg/injection, schedule: Q01DX001 (sc), vehicle: saline
  T/C: 120 % of control
dose: 1500.0 mg/kg/injection, schedule: Q01DX001 (ip), vehicle: saline
  T/C: 119 % of control

## CS(=O)(=O)OCCCCOS(C)(=O)=O
dose: 3.13 mg/kg/injection, schedule: Q01DX009 (ip), vehicle: saline
  T/C: 108 % of control
dose: 6.25 mg/kg/injection, schedule: Q01DX009 (ip), vehicle: saline
  T/C: 105 % of control
[4]
  T/C: 106 % of control and 107 % of control
[9]
  T/C: 97 % of control and 100 % of control and 102 % of control
dose: 12.5 mg/kg/injection, schedule: Q01DX009 (ip), vehicle: saline
  T/C: 95 % of control and 105 % of control

## CCCn1cnc2c(=S)nc[nH]c21
[9]
  T/C: 120 % of control
[10]
  T/C: 116 % of control
[5]
  T/C: 106 % of control

## CNc1ccc(C(=O)O)cc1I
[2]
  T/C: 105 % of control
dose: 100.0 mg/kg/injection, schedule: Q04DX003 (ip), vehicle: Klucel (hydroxypropylcellulose) (HPC)
  T/C: 100 % of control
[3]
  T/C: 120 % of control
dose: 200.0 mg/kg/injection, schedule: Q04DX003 (ip), vehicle: Klucel (hydroxypropylcellulose) (HPC)
  T/C: 104 % of control
dose: 400.0 mg/kg/injection, schedule: Q01DX009 (ip), vehicle: Klucel (hydroxypropylcellulose) (HPC)
  T/C: 91 % of control
dose: 400.0 mg/kg/injection, schedule: Q04DX003 (ip), vehicle: Klucel (hydroxypropylcellulose) (HPC)
  T/C: 100 % of control
